Entries after “also recorded” stand apart in the source; their conditions may differ. Where a name gives a salt, the structure may show the parent alone. Read-outs that look alike come from different tables or passages of the source.
What was measured:
hairless dogs [1] = assay: Skin condition (remission of wrinkles) in old hairless dogs, gross observation and video macroscope; type: in vivo, dog; conditions: 0.2% and 0.02% in PEG
Method: (§1) The therapeutic efficacy of neutrophil (leukocyte) elastase inhibitors in “dermal aging” was evaluated in hairless dogs.
(§2) Two adult (old) experimental hairless dogs constructed by cross-breeding of a Mexican hairless dog and a beagle dog were used. Old dogs presenting with age-associated fine “wrinkles” , not observed in young dogs, on the body surface were used as subject animals.
5) Polyethylene glycol (PEG) (solvent control) (PEG was used as the solvent for drugs 1˜4)
(§3) Each drug was applied in one location (a total of 5 locations) on the back (5×5 cm) of each dog. The drug was applied in a dosing volume of about 4 μL/cm^2 once daily (except on Saturdays, Sundays and holidays) for 3 months.
1) Skin condition: Gross observation and observation with a video macroscope

hairless dogs [2] = assay: Histology of biopsy samples from old hairless dogs (van Gieson's stain, Weigert's stain); type: in vivo; conditions: Dog No. 8807, 3 months
Method: The therapeutic efficacy of neutrophil (leukocyte) elastase inhibitors in “dermal aging” was evaluated in hairless dogs. Two adult (old) experimental hairless dogs constructed by cross-breeding of a Mexican hairless dog and a beagle dog were used. Old dogs presenting with age-associated fine “wrinkles” , not observed in young dogs, on the body surface were used as subject animals. Each drug was applied in one location (a total of 5 locations) on the back (5×5 cm) of each dog. The drug was applied in a dosing volume of about 4 μL/cm^2 once daily (except on Saturdays, Sundays and holidays) for 3 months. 2) Histology: Observation of histological changes in biopsy samples by H-E (hematoxylin-eosin) stain (general staining) , van Gieson's stain (staining of collagen fiber) and Weigert's stain (staining of elastin fiber)

hairless dogs [3] = assay: Skin thickness: thickness of the epidermis (excluding the horny layer) in H-E stained tissue samples of old hairless dogs; type: in vivo, dog; conditions: for Thickness of the epidermis, value after the arrow (after treatment): FK706 0.2% topical once daily for 3 months; for Thickness of the epidermis, value after the arrow (after treatment) / Thickness of the epidermis, value before the arrow (initial): mean±SD
Method: as §1, §2, §3

[4] = qualitative, by solvent, cited from earlier work
[5] = gross observation, dog No. 8807 (10 yr old, male), about 4 μL/cm2 on the back once daily for 3 months
[6] = gross observation, dog No. 8808 (10 yr old, female), about 4 μL/cm2 on the back once daily for 3 months
[7] = observation with a video macroscope, dog No. 8807, once daily for 3 months
[8] = observation with a video macroscope, dog No. 8808, once daily for 3 months

| Compound | Order of efficacy in the elimination or remission of wrinkles (hairless dogs [1]; [5]) | Order of efficacy in the elimination or remission of wrinkles (hairless dogs [1]; [6]) | Order of efficacy in the elimination or remission of wrinkles (hairless dogs [1]; [7]) | Order of efficacy in the elimination or remission of wrinkles (hairless dogs [1]; [8]) | Histological finding, Weigert's stain (elastin fiber) (hairless dogs [2]; topical) | Histological finding, van Gieson's stain (collagen fiber) (hairless dogs [2]; FK706 0.2% topical) | Thickness of the epidermis, value after the arrow (after treatment) (hairless dogs [3]; Dog No. 8807) [μm] | Thickness of the epidermis, value before the arrow (initial) (hairless dogs [3]; Dog No. 8807, location treated with FK706 0.2%) [μm] | Thickness of the epidermis, value after the arrow (after treatment) (hairless dogs [3]; Dog No. 8808) [μm] | Thickness of the epidermis, value before the arrow (initial) (hairless dogs [3]; Dog No. 8808, location treated with FK706 0.2%) [μm] | Change in thickness of the epidermis (hairless dogs [3]; location treated with FK706 0.2%, p<0.05 in both Dog 8807 and Dog 8808) | Solubility ([4]; disodium salt) | Solubility ([4]; dipotassium salt) |
| --- | --- | --- | --- | --- | --- | --- | --- | --- | --- | --- | --- | --- | --- |
| CC(C)C(NC(=O)[C@@H]1CCCN1C(=O)[C@@H](NC(=O)c1ccc(C(=O)NCC(=O)O)cc1)C(C)C)C(=O)C(F)(F)F (mixture of isomers) [FK706, 3 (RS)-[[4-(carboxymethylaminocarbonyl)phenyl-carbonyl]-L-valyl-L-prolyl]amino-1,1,1-trifluoro-4-methyl-2-oxopentane] | FK706·0.1%>FK706·0.02%>FR134043·0.2%=FR134043·0.02% | FK706·0.2%>FK706·0.02%>FR134043·0.2%=FR134043·0.02% | FK706·0.2%>FK706·0.02%>FR134043·0.2%>FR134043·0.02% | FK706·0.2%=FK706·0.02%>FR134043·0.2%=FR134043 0.02% | Growth of elastin fibrils (suspected to be oxytalan fiber which is said to disappear as increasing age) was found across the boundary between the epidermis and dermis | Neogenesis of a thin layer of collagen fiber was found across the boundary between the epidermis and dermis | 26.8±5.9 | 17.0±1.9 | 42.0±9.0 | 24.6±3.6 | increased significantly |  |  |
| C/C=C1\NC(=O)C2NC(=O)C(NC(=O)C(C)C)CCCNC(=O)Nc3cc(OS(=O)(=O)O)c(OS(=O)(=O)O)cc3C[C@@H](C(=O)NC(C(C)C)C(=O)OC2C)N(C)C(=O)C(Cc2ccccc2)N2C(=O)[C@H](CC[C@H]2O)NC1=O (some centres unmarked) [FR134043, WS7622A disulfate ester disodium salt] | FK706·0.1%>FK706·0.02%>FR134043·0.2%=FR134043·0.02% | FK706·0.2%>FK706·0.02%>FR134043·0.2%=FR134043·0.02% | FK706·0.2%>FK706·0.02%>FR134043·0.2%>FR134043·0.02% | FK706·0.2%=FK706·0.02%>FR134043·0.2%=FR134043 0.02% |  |  |  |  |  |  |  | Soluble: water, methanol; also recorded: Insoluble: chloroform, n-hexane |  |
| WS7622A disulfate ester dipotassium salt |  |  |  |  |  |  |  |  |  |  |  |  | Soluble: water, methanol; also recorded: Insoluble: chloroform, n-hexane |

Source: patent US6610748B1, “Preventives/remedies for skin aging” (Fujisawa Pharmaceutical Co., Ltd., priority 1998, dated 2003)
